Data set [1] is described as follows: Molar enthalpy of transition or fusion. The settings on record: DSC.
The conditions of data set [2]: DTA.

Data on two compounds can be found in the NIST ThermoML archive (doi:10.1016/j.jct.2016.11.022).

Numbers after ± are expanded uncertainties.

`CC(N)=O` [ethanamide]: the “Molar enthalpy of transition or fusion” value in data set [1] (Crystal) was 3.26 ± 0.335 kcal/mol; in data set [1] (Metastable crystal), 2.78 ± 0.287 kcal/mol. Also, the Normal melting temperature in data set [2] (Crystal) stood at 80.62 ± 1.1 °C; in data set [2] (Metastable crystal), 70.14 ± 1.1 °C.
Turning to `CCCCCCCCCCCCCCCCCC(=O)O` [octadecanoic acid], the “Molar enthalpy of transition or fusion” value in data set [1] (Crystal) stood at 14.4 ± 1.46 kcal/mol. Besides, the Normal melting temperature in data set [2] (Crystal) is 69.47 ± 1.1 °C.
